In experiment [1] the target is T1, Integrin alpha-V/beta-3 (Homo sapiens, UniProt P05106+P06756). In words: Inhibition of alphavbeta3 integrin-mediated capillary tube formation in HUVEC after 16 hrs by matrigel assay. The class given is protein-complex assay.
Experiment [2] has as its target T1, Integrin alpha-V/beta-3. In words: Inhibition of alphavbeta3 integrin-mediated cell adhesion in HUVEC after 15 mins by matrigel assay. The class given is protein-complex assay.
The target of experiment [3] is Integrin alpha-V/beta-5 (Homo sapiens, UniProt P06756+P18084). In words: Inhibition of vitronectin binding to human alphaVbeta5 integrin after 1 hr by ELISA. It is filed as protein-complex assay.
Integrin alpha-V/beta-5, sequence (P06756 31-889 limits assumed): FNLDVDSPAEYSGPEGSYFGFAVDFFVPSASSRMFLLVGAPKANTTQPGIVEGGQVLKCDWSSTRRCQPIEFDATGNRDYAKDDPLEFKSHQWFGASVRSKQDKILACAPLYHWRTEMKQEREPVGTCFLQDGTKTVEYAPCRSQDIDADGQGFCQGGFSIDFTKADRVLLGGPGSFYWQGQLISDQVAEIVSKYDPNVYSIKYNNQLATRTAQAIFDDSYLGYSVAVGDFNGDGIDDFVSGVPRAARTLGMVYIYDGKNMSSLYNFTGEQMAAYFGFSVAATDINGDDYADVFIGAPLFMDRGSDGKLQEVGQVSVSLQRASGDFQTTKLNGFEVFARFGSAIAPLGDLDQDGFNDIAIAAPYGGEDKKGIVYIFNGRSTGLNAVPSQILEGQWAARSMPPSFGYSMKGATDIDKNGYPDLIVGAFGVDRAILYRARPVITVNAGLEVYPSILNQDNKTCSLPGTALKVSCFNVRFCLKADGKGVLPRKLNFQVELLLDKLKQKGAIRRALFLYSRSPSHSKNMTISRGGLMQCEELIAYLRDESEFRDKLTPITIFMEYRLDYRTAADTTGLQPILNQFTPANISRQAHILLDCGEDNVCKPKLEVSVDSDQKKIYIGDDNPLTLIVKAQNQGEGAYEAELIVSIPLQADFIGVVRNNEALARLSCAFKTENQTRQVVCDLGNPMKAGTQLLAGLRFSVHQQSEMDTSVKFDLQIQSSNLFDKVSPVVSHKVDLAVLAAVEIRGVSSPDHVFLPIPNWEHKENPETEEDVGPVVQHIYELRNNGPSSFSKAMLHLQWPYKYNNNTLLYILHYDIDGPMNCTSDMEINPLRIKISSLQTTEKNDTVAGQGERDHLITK
Integrin alpha-V/beta-5, sequence (P06756 891-1048 limits assumed): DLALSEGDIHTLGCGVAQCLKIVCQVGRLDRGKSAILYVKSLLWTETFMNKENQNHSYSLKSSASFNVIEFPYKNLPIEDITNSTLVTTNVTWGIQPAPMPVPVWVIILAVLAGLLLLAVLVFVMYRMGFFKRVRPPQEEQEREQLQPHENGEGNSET
Integrin alpha-V/beta-5, sequence (P18084 24-799 limits assumed): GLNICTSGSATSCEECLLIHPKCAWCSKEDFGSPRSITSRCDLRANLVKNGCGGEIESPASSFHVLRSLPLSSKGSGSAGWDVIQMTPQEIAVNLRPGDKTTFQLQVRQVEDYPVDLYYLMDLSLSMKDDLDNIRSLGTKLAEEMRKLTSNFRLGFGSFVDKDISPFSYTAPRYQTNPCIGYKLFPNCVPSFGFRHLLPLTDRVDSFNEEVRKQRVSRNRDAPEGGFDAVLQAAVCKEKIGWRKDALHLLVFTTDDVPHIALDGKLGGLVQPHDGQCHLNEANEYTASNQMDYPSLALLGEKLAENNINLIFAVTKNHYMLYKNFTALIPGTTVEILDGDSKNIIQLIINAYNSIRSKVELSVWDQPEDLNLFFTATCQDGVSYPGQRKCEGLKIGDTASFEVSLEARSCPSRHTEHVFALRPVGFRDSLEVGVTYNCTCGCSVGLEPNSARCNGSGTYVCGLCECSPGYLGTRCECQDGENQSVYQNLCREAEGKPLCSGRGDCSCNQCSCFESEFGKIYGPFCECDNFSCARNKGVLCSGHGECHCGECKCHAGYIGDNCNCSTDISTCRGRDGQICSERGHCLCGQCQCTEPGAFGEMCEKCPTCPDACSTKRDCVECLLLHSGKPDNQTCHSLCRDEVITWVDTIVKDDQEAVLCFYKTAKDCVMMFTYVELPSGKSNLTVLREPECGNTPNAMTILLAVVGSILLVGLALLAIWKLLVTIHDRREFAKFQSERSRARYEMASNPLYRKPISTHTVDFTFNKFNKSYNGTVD
For experiment [4], the target named is T1, Integrin alpha-V/beta-3. In words: Inhibition of vitronectin binding to human alphaVbeta3 integrin after 2 hrs by ELISA. It is filed as protein-complex assay.
Target sequence in this assay (P05106 27-788 limits assumed): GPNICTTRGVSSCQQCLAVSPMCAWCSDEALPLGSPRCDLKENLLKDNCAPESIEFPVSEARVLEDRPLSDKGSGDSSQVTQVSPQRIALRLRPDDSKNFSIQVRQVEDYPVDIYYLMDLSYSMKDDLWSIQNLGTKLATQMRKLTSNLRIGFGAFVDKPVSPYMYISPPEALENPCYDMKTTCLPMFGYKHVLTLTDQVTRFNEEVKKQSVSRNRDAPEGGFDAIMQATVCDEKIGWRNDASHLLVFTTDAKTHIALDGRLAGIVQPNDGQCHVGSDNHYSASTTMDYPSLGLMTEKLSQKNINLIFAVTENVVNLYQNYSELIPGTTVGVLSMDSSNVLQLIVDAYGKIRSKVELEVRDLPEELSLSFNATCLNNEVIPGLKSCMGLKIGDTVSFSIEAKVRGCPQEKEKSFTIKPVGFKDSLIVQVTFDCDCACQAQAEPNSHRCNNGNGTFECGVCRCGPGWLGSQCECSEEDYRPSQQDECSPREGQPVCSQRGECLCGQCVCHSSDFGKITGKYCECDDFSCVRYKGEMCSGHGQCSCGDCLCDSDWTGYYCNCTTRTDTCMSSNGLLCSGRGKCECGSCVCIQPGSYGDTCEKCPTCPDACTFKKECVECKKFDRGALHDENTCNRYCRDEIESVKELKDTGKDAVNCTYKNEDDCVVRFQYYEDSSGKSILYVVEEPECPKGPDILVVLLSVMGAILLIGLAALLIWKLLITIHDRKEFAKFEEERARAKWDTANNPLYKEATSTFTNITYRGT
Target sequence in this assay (P06756 31-889 limits assumed): as the sequence (P06756 31-889 limits assumed) above
Target sequence in this assay (P06756 891-1048 limits assumed): as the sequence (P06756 891-1048 limits assumed) above
The target of experiment [5] is Integrin alpha-IIb/beta-3 (Homo sapiens, UniProt P05106+P08514). As to the kind of experiment: Inhibition of fibrinogen binding to human alpha2b/beta3 integrin after 1 hr by ELISA. It is filed as protein-complex assay.
Integrin alpha-IIb/beta-3, sequence (P05106 27-788 limits assumed): as the sequence (P05106 27-788 limits assumed) above
Integrin alpha-IIb/beta-3, sequence (P08514 32-887 limits assumed): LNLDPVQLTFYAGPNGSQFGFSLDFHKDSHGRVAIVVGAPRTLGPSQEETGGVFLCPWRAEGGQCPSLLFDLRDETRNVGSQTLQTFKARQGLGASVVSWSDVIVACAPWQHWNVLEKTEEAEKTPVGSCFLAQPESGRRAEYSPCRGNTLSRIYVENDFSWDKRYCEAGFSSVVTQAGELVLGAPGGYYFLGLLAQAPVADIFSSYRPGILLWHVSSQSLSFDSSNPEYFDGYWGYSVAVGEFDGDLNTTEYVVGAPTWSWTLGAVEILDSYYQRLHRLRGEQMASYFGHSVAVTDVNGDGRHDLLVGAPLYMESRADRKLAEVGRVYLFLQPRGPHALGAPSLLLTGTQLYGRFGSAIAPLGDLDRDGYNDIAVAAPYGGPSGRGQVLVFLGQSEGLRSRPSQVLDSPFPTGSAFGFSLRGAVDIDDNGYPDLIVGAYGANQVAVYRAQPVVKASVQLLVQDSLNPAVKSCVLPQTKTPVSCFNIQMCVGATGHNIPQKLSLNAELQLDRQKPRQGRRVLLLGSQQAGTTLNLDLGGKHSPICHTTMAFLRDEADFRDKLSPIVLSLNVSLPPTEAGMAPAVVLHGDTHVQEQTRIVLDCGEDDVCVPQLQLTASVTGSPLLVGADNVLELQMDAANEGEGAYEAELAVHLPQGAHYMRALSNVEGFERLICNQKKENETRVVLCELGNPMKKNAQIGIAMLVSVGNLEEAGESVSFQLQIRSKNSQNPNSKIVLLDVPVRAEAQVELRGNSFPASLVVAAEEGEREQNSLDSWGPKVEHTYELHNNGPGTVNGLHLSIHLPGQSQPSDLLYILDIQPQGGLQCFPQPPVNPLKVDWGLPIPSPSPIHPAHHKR
Integrin alpha-IIb/beta-3, sequence (P08514 891-1039 limits assumed): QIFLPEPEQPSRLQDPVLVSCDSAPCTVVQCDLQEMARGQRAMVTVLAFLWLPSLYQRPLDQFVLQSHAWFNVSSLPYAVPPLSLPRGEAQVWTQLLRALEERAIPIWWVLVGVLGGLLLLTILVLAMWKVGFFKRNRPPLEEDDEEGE
In experiment [6] the target is Integrin alpha-5/beta-1 (Homo sapiens, UniProt P05556+P08648). In words: Inhibition of fibronectin binding to human alpha5beta1 integrin after 1 hr by ELISA. The class given is protein-complex assay.
The species named for experiment [7] is Homo sapiens. In words: Selectivity ratio IC50 for human alpha2b/beta3 integrin to IC50 for human alphaVbeta3 integrin.

Peptide text beside a SMILES is read from it.

As to `NC(N)=NCCC[C@H](N)C(=O)NCC(=O)N[C@@H](CC(=O)O)C(=O)O`, the inhibition result in experiment [1] and in experiment [2] was “Dose-dependent effect” each time.
With `N=C(N)NCCC[C@H](N)C(=O)NCC(=O)N[C@@H](CC(=O)O)C(=O)O`, the IC50 in experiment [3] was 38 µM; in experiment [4] it was 12 µM; in experiment [5], 130 µM.
In the case of `N=C(N)NCCC[C@H](N)C(=O)NCC(=O)N[C@@H](CC(=O)O)C(=O)N[C@@H](Cc1ccccc1)C(=O)O` (H-RGDF-OH), the inhibition entry in experiment [1] and in experiment [2] was “Dose-dependent effect” in each case. Further, the IC50 in experiment [6] was determined as 1550 µM; in experiment [3] it was 92 µM; in experiment [4], 4.1 µM; in experiment [5], 725 µM. Besides, the Ratio IC50 in experiment [7] is 177.

These data come from ChEMBL document CHEMBL3297736, “Rational improvement of the affinity and selectivity of integrin binding of grafted lasso peptides” (J Med Chem, 2014).
